Experimental data taken from PMC11374953, “Heteroaryl derivatives of suvorexant as OX1R selective PET ligand candidates: Cu-mediated ^18F-fluorination of boroxines, in vitro and initial in vivo evaluation” (EJNMMI Research, 2024).

Columns and labels:
[1] = cited from earlier work
[2] = Plasma protein binding (MicroSpin G-50 columns); format: in vitro ADME; details: human plasma, 37 °C, read-out: plasma protein binding (PPB) (converted)
Method: The radiotracer (100–200 kBq, [^18F]1c or [^18F]1f) in PBS (2 µL) was incubated with human plasma (100 µL) at 37 °C for 10 min. After preconditioning of the microcolumns according to the instructions of the manufacturer (illustra MicroSpin G-50 columns from GE Healthcare), a sample (40 µL) of was applied to the resin. The microspin tubes were centrifuged (2000g, 2 min) and both, eluate and resin were measured by a γ-counter (Wallac Wizard 1470, PerkinElmer, USA). The PPB was calculated as percentage of bound ligand (cpm of resin) from the total amount of radioactivity (sum of cpm of resin and eluate). Samples from incubation of the radiotracer in saline instead of plasma served as negative control. The mean PPB value was determined from at least two independent experiments each performed in triplicate.

[3] = Dynamic small animal PET imaging of the rat brain; format: in vivo; details: for brain uptake after pretreatment with cyclosporine A: cyclosporine A 25 mg/kg i.v. prior to tracer; for brain uptake after pretreatment with cyclosporine A / brain uptake after preinjection of suvorexant / maximum brain uptake: n = 1; for brain uptake after preinjection of suvorexant: suvorexant 1 mg/kg i.v. 15 min prior to tracer; for time of maximum brain uptake p.i. / maximum brain uptake: tracer alone i.v.; for maximum brain uptake: whole brain
Method: Small animal PET experiments in rats were performed to allow for an initial comparison in single animals that were injected with [^18F]1c or [^18F[1f alone, after preinjection of suvorexant (1 mg/kg), and after pretreatment with cyclosporine A (25 mg/kg) (Fig. 3). […] Therefore, to elucidate the P-gp-mediated transport of the compounds, specific experiments were performed.
Fig. 3 Time-activity curves and horizontal PET slices of the rat brain after injection of [^18F]1c (A, C) and [^18F]1f (B, D). Single animals were injected with the tracer alone (“control”, blue) compared to animals preinjected with suvorexant (1 mg/kg, 15 min prior to tracer injection, each n = 1; “blocking”, red) or cyclosporine A (25 mg/kg, 30 min prior to tracer injection, each n = 1; green)
Ten- to 13-week-old female CD Sprague–Dawley rats (250–300 g, Charles River) were housed with free access to standard rat chow (Purina) and water at all times. Dynamic small animal PET scans were performed on an Inveon™ microPET scanner (Siemens Healthineers AG, Erlangen, Germany). All rats were continuously anesthetized using isoflurane (2–3% in oxygen, 0.8 L/min) and placed on a heating pad (37 °C) during the PET scan. Rats were injected intravenously in the tail vein with the radioligand in saline (5–15 MBq in 200–300 µL, [^18F]1c or [^18F]1f). Pretreatment with suvorexant (1 mg/kg, 15 min prior to tracer injection) or cyclosporine A (25 mg/kg, […] to tracer injection) was done intravenously. Dynamic PET scans were acquired from 0 to 60 min p.i. and consisted of 23 frames with increasing duration (12 × 10 s, 3 × 1 min, 5 × 5 min and 3 × 10 min). Subsequently, an attenuation scan with a rotating Co-57 point source was performed. The obtained dynamic emission images were subjected to an attenuation and decay correction. After the iterative maximum a posteriori (MAP) estimation for the image reconstruction, regions of interest (ROIs) were drawn for the whole brain. Computational processing of the PET scans was done with the software PMOD (PMOD Technologies LLC). The data obtained were finally converted into values expressed as percent of injected dose per gram (%ID/g).

[4] = Radioligand stability in rat plasma; format: in vitro ADME; details: 37 °C, up to 120 min, radio-HPLC
Method: (§1) The radioligand (1–2 MBq, [^18F]1c or [^18F]1f) in PBS (20 µL) was incubated with human serum, human plasma or rat plasma (400 µL) at 37 °C. Samples (50 µL) were taken at 5, 10, 15, 30, 60 and 120 min, mixed with aqueous TFA (10%, 50 µL) and centrifuged (20,000g, 2 min). The supernatant (20 µL) was analyzed by radio-HPLC.

[5] = Radioligand stability in human plasma and human serum; format: in vitro ADME; details: 37 °C, up to 120 min, radio-HPLC
Method: as §1

[6] = Partition coefficient logD7.4 (n-octanol/PBS); format: physicochemical; details: n-octanol/PBS pH 7.4, mean ± SD
Method: Phosphate-buffered saline (PBS, 480 µL, pH 7.4) and n-octanol (500 µL) were placed in an Eppendorf tube. The radioligand (30–50 kBq, [^18F]1c or [^18F]1f) in PBS (20 µL) was added to the tube, vortexed for 1 min and centrifuged (20,000g, 1 min). Three samples (100 µL) from each layer were collected and measured by a γ-counter (Wallac Wizard 1470, PerkinElmer, USA). After the average cpm values from the triplicate measurements of each layer were calculated, the logD7.4 was determined as the logarithm of the ratio of n-octanol (mean cpm) to PBS (mean cpm). The mean logD7.4 value ± standard deviation was determined by at least three independent experiments each performed in triplicates.

human OX2R = molecular target: T1, human OX2R (Homo sapiens, UniProt O43614); design: method as in PMID 32669442; details: HEK293T homogenates; data from previous work; read-out: Ki values (nM ± SEM) hOX2R; cited from earlier work
T1 construct: host or cells: HEK293T
T1 sequence (O43614 1-444): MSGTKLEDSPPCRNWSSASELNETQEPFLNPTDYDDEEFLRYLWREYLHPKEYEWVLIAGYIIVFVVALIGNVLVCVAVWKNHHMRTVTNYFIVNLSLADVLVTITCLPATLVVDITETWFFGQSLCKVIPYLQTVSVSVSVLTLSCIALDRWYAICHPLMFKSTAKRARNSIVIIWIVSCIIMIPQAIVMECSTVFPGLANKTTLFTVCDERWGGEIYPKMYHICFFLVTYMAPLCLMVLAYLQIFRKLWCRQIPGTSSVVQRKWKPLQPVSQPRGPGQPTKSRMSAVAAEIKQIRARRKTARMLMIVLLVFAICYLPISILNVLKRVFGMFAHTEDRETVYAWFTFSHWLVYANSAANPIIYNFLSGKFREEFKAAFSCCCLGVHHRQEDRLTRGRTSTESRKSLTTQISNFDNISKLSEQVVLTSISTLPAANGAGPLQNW

human OX1R = molecular target: T2, human OX1R (Homo sapiens, UniProt O43613); design: method as in PMID 32669442; details: data from previous work, cited from earlier work
T2 construct: host or cells: HEK293T
T2 sequence (O43613 1-425): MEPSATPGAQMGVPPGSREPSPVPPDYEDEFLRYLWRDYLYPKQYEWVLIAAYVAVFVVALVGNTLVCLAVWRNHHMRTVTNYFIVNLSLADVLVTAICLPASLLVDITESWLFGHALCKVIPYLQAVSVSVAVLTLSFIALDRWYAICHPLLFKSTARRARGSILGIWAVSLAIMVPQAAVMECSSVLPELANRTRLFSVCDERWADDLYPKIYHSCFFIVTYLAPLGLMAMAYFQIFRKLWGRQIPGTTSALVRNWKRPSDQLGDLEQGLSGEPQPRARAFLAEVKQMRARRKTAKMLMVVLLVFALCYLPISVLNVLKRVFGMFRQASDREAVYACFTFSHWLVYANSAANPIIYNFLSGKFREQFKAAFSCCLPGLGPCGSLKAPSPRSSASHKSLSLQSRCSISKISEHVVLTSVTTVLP

Cc1ccc(-n2nccn2)c(C(=O)N2CCN(c3nc4cc(Cl)ccc4o3)CC[C@H]2C)c1 [suvorexant]
protein-bound fraction in the blood [1]: > 99%

CC[C@H](C)[C@H]1CN(c2nc3ccc([18F])cc3s2)CCCN1C(=O)c1cc(C)ccc1-n1nccn1 [[^18F]1f, {(S)-2-[(S)-sec-butyl]-4-(6-[^18F]fluorobenzo[d]thiazol-2-yl)-1,4-diazepan-1-yl}[5-methyl-2-(2H-1,2,3-triazol-2-yl)phenyl]methanone]
fraction unbound at 10 min [2]: 0.23 | brain uptake after pretreatment with cyclosporine A [3]: 0.18 %ID/g | brain uptake after preinjection of suvorexant [3]: not affected | time of maximum brain uptake p.i. [3]: 24 s | maximum brain uptake [3]: 0.15 %ID/g | stability in rat plasma [4]: stable over 120 min | stability in human plasma [5]: stable over 120 min | stability in human serum [5]: stable over 120 min | logD [6]: 2.37

CC[C@H](C)[C@H]1CN(c2nc3cc(Cl)ccc3o2)CCCN1C(=O)c1cc(C)ccc1-n1nccn1 [JH112]
Ki (human OX2R): 54 ± 7 nM | Ki (human OX1R; HEK293T membranes, read-out: Ki values (nM ± SEM) hOX1R): 0.72 ± 0.08 nM | OX1R selectivity Ki(hOX2R)/Ki(hOX1R) (human OX1R; Ki for OX2R divided by Ki for OX1R): 75

Cc1ccc(-n2nccn2)c(C(=O)N2CCCN(c3nc4ccc([18F])cc4s3)CC2)c1 [[^18F]1c, [4-(6-[^18F]fluorobenzo[d]thiazol-2-yl)-1,4-diazepan-1-yl][5-methyl-2-(2H-1,2,3-triazol-2-yl)phenyl]methanone]
fraction unbound at 10 min [2]: 0.34 | brain uptake after pretreatment with cyclosporine A [3]: 0.25 %ID/g | brain uptake after preinjection of suvorexant [3]: 0.25 %ID/g | time of maximum brain uptake p.i. [3]: about 40 s | maximum brain uptake [3]: 0.17 %ID/g | stability in rat plasma [4]: stable over 120 min | stability in human plasma [5]: stable over 120 min | stability in human serum [5]: stable over 120 min | logD [6]: 2.28
